Experimental data taken from US20130164337A1, “ANTIMICROBIAL ACTION PHARMACEUTICAL COMPOSITION FOR PARENTERAL ADMINISTRATION AND ITS PRODUCTION PROCESS” (priority 2010, published 2013).

What was measured:
Test in all cases: Experimental sepsis model in mice, survival on the 7th day
Format in all cases: in vivo
[1] = tested on: Staphylococcus aureus (ATCC 25923 F-49); settings: Staphylococcus aureus 10^10 CFU/mouse; 100 mg/kg intravenous daily during 3 days; hybrid mice (CBA×C57Black/6)CBF1
Description: (§1) To determine therapeutic efficiency of betalactam and their pharmaceutical compositions including BHSiO2, we used experimental sepsis models and a statistical processing method of the received data (χ^2) according to [22, 23].
(§2) Microorganisms: Staphylococcus aureus (ATCC ? 25923 F-49), Escherichia coli (ATCC ? 25922 F-50), Pseudomonas aeruginosa (ATCC ? 27853 F-51).
(§3) Animals: for the experiments we used hybrid mice (CBA×C57Black/6)CBF1 according to the “Regulations for test animals use” (USSR Ministry of health order supplement ? 755 from 12.08. 1977).
(§4) The mice have been injected 0.8 ml of Pseudomonas aeruginosa daily culture suspension with a dosage 5×10^8 CFU/mouse or Staphylococcus aureus daily culture suspension with a dosage of 10^10 CFU/mouse or Escherichia coli daily culture suspension with a dosage of 8×10^8 CFU/mouse.
(§5) The control group has been injected with 0.8 ml of normal saline solution (0.9% sodium chloride solution). In a day after being infected the test mice have been daily (during 3 days) intravenous injected with 100 mg/kg of antibiotics or different pharmaceutical compositions (antibiotic/BHSiO2) watered down with 0.25 ml of normal saline solution. The control group of mice has been injected using the same scheme with normal saline solution […].
(§6) Antibacterial therapy efficiency was evaluated basing on the quantity of the surviving animals on the 7th day after being infected.
(§7) The obtained data shown in Table ? 3 reflect the results of 3 independent experiments (for each preparation research were used not less than 30 test animals in total).

[2] = tested on: Escherichia coli (ATCC 25922 F-50); settings: Escherichia coli 8×10^8 CFU/mouse; 100 mg/kg intravenous daily during 3 days; hybrid mice (CBA×C57Black/6)CBF1
Description: as §1, §2, §3, §4, §5, §6, §7

[3] = tested on: Pseudomonas aeruginosa (ATCC 27853 F-51); settings: Pseudomonas aeruginosa 5×10^8 CFU/mouse; 100 mg/kg intravenous daily during 3 days; hybrid mice (CBA×C57Black/6)CBF1
Description: as §1, §2, §3, §4, §5, §6, §7

SMILES | Mice survival rate on the 7th day of infection [1] | Mice survival rate on the 7th day of infection [2] | Mice survival rate on the 7th day of infection [3]
CC1(C)S[C@@H]2[C@H](NC(=O)C(C(=O)O)c3ccccc3)C(=O)N2[C@H]1C(=O)O (stereo partly drawn) [Carbenicillin] | 46.7% (14/30) | 43.3% (13/30) | 43.3% (13/30)
CC(C)(O/N=C(\C(=O)N[C@@H]1C(=O)N2C(C(=O)[O-])=C(C[n+]3ccccc3)CS[C@H]12)c1csc(N)n1)C(=O)O [Ceftazidime] | – | 38.7% (15/31) | 43.3% (13/30)
CO/N=C(\C(=O)N[C@@H]1C(=O)N2C(C(=O)O)=C(COC(N)=O)CS[C@H]12)c1ccco1 [Cefuroxime] | 40.0% (14/35) | 43.7% (14/32) | –
CO/N=C(\C(=O)N[C@@H]1C(=O)N2C(C(=O)[O-])=C(C[N+]3(C)CCCC3)CS[C@H]12)c1csc(N)n1 [Cefepime] | 46.7% (14/30) | 43.7% (14/32) | 46.7% (14/30)
C[C@@H](O)[C@H]1C(=O)N2C(C(=O)O)=C(S[C@@H]3CN[C@H](C(=O)N(C)C)C3)[C@H](C)[C@H]12 [Meropenem] | 73.3% (22/30) | 78.0% (32/41) | 73.8% (31/42)
CO/N=C(\C(=O)N[C@@H]1C(=O)N2C(C(=O)O)=C(CSc3nc(=O)c(=O)[nH]n3C)CS[C@H]12)c1csc(N)n1 [Ceftriaxone] | 46.7% (14/30) | 41.9% (13/31) | –
CO[C@@]1(NC(=O)Cc2cccs2)C(=O)N2C(C(=O)O)=C(COC(N)=O)CS[C@@H]21 [Cefoxitin] | 35.2% (15/34) | 46.7% (14/30) | –
Cc1nnc(SCC2=C(C(=O)O)N3C(=O)[C@@H](NC(=O)Cn4cnnn4)[C@H]3SC2)s1 [Cefazolin] | 37.5% (12/32) | – | –
CO/N=C(\C(=O)N[C@@H]1C(=O)N2C(C(=O)O)=C(COC(C)=O)CS[C@H]12)c1csc(N)n1 [Cefotaxime] | 40.0% (12/30) | 43.3% (13/30) | –
CCN1CCN(C(=O)N[C@@H](C(=O)N[C@@H]2C(=O)N3C(C(=O)O)=C(CSc4nnnn4C)CS[C@H]23)c2ccc(O)cc2)C(=O)C1=O [Cefoperazone] | – | 45.2% (14/31) | 40.0% (12/30)
C[C@H]1[C@H](NC(=O)/C(=N\OC(C)(C)C(=O)O)c2csc(N)n2)C(=O)N1S(=O)(=O)O [Aztreonam] | – | 77.5% (31/40) | 74.4% (32/43)
